Measurements as given in patent US4758580A, “Inhibiting growth of tumors with certain substituted phenoxy dimethyl alkanoic acids, esters or salts” (Yamanouchi Pharmaceutical Co., Ltd., priority 1985, dated 1988).
Values after ≈ are worked out from the molar mass of the structure shown.

Columns and labels:
Hela (uterine cancer) = experiment: In vitro cytotoxicity against human tumor cells, Hela; type: cell-based; conditions: 72 h, 3 days, 37° C., crystalviolet
Procedure: (§1) A suspension of cells in a culture medium was transferred into wells in a microplate in an amount of 5×10^4 cells/well. Test sample diluted with a culture medium was added to the suspension in each well, and the mixture was incubated at 37° C. for 3 days in an atmosphere of air containing 5% carbon dioxide. After skimming, sticking cells were dyed which crystalviolet for 10 minutes. After washing with water, 1% sodium lauryl sulfate solution was added to each well, and the absrobancy (optical density) at […] was measured. "% inhibition" was calculated from the following equation. [formula]

[1] = test system: Meth A (methylcholanthrene-induced cancer); experiment: In vitro cytotoxicity against mouse tumor cells, Meth A; type: cell-based; conditions: 72 h, Meth A, 3 days, 37° C., trypan blue, read-out: IC50
Procedure: (§2) A suspension of cells in a culture medium was transferred into wells in a microplate in an amount of 1×10^5 cells/wall. Test sample diluted with a culture medium was added to the suspension in each well, and the mixture was incubated on the medium at 37° C. for 3 days in atmosphere of air containing 5% carbon dioxide. Thereafter, the incubated cells were recovered from the microplate and the number of live cells was counted by the dye exclusion test using a 0.5% solution of trypan blue and by using a hemocytomer.

MM 46 (mammary cancer) = experiment: In vitro cytotoxicity against mouse tumor cells, MM 46; type: cell-based; conditions: 72 h, 3 days, 37° C., trypan blue
Procedure: as §2

[2] = test system: KB (nasal cavity & pharynx cancer); experiment: In vitro cytotoxicity against human tumor cells, KB; type: cell-based; conditions: 72 h, KB, 3 days, 37° C., crystalviolet, read-out: IC50
Procedure: as §1

MM-46 ascites tumor = experiment: Anti-tumor test against mice mammary cancer MM-46 ascites tumor; type: in vivo, C3 H/He/CRJ mice
Procedure: MM-46 tumor cells, 1×10^6, on Day 7 after intraperitoneal transplantation to C3 H/He/CRJ mice (5 week age, male) of 10 mice each being grouped in one. The active component was intraperitoneally administered in a definite dose 24 hours after the transplantation according to the schedule shown in Table 5. An effect of tumor growth inhibition was evaluated by a percentage of the median survival time of the administered group versus that of the control group, according to the following equation.
(§3) T: median survival day of the administered group
(§4) C: median survival day of the control group

melanoma BL-6 = experiment: Inhibition of experimental metastasis (to the lung) of melanoma BL-6 in mice; type: in vivo, male BDF1 /SLC mice; conditions: 22th day
Procedure: (b) Inhibition of experimental metastasis (to the lung) of melanoma BL-6 in mice
BL-6 cancer cells, 5×10^4, were inoculated into the tail veins of male BDF1 /SLC mice (6 week age) of 6 mice each being grouped in one (13 mice for the control group). The test compounds were administered orally in a definite dose 24 hours after the inoculation. In order to see metastasis-inhibitory effect, on 22th day after the inoculation, the mice were anatomised to observe the metastasis to the lungs. The degree of metastasis was evaluated by the number of pulmonary nodules. [formula] T: Median number of pulmonary nodules of the administered group C: Median number of pulmonary nodules of the control group

Ehrlich ascites tumor = experiment: Anti-tumor effect against Ehrlich ascites tumor; type: in vivo, ddY/SLC mice
Procedure: Ehlrich tumor cells, 1×10^6, on Day 7 after intraperitoneal transplantation to ddY/SLC mice were intraperitoneally transplanted to ddY/SLC mice (5 week age, male) of 10 mice each being grouped in one. The active component was intraperitoneally administered in a definite dose 24 hours after the transplantation according to the schedule shown in Table 4. An effect of tumor growth inhibition was evaluated by a percentage of the median survival day of the administered group versus that of the control group, according to the following equation.
as §3, §4

MM-46 solid tumor = experiment: Test against mouse mammalian MM-46 solid tumor; type: in vivo, C3 H/He/SLC mice; conditions: 1-9 Days
Procedure: MM-46 Tumor cells, 1×10^6, on Day 7 after intraperitoneal transplantation to C3 H/He/SLC mice were subcutaneously transplanted to the left abdomen of C3 H/He/SLC mice (5 week age, male) of 8 mice each being grouped in one (21 mice for the control group). The active component was orally administered in a definite dose 24 hours after the transplantation according to the schedule shown in Table 2. An effect of tumor growth inhibition was compared by measuring the long diameter and short diameter of the tumor on Days 14 and 21 after the transplantation, calculating the tumor size (mm^2) and determining a tumor growth inhibition rate of the active component-administered group to the control group.

[3] = 6.25 mg/kg i.p., 1, 2, 3, 4 and 6 Days
[4] = 12.5 mg/kg i.p., 1, 2, 3, 4 and 6 Days
[5] = 25 mg/kg i.p., 1, 2, 3, 4 and 6 Days
[6] = 50 mg/kg i.p., 1, 2, 3, 4 and 6 Days
[7] = 100 mg/kg i.p., 1, 2, 3, 4 and 6 Days
[8] = 200 mg/kg i.p., 1, 2, 3, 4 and 6 Days
[9] = 200 mg/kg oral, 1, 2, 3, 5, 6, 7, 8, 9 and 10 days
[10] = 400 mg/kg oral, 1, 2, 3, 5, 6, 7, 8, 9 and 10 days
[11] = 100 mg/kg i.p., 1, 3, 6, 8 & 10 Days

SMILES: CCOC(=O)C(C)(C)CCCCOc1ccc(OCCCCCn2ccnc2)cc1 [Compound B]
- IC50 (Hela (uterine cancer)): 2.05 µg/mL (≈ 4.92 µM)
- IC50 [1]: 0.8 µg/mL (≈ 1.92 µM)
- IC50 (MM 46 (mammary cancer)): 0.7 µg/mL (≈ 1.68 µM)
- IC50 [2]: 1.15 µg/mL (≈ 2.76 µM)
- Median Survival Day (MM-46 ascites tumor; [3]): 7.0 days
- Survivors (90 days) (MM-46 ascites tumor; [3]): 0/10
- T/C (median survival) (MM-46 ascites tumor; [3]): 93.3%
- Median Survival Day (MM-46 ascites tumor; [4]): 7.0 days
- Survivors (90 days) (MM-46 ascites tumor; [4]): 0/10
- T/C (median survival) (MM-46 ascites tumor; [4]): 93.3%
- Median Survival Day (MM-46 ascites tumor; [5]): 8.5 days
- Survivors (90 days) (MM-46 ascites tumor; [5]): 0/10
- T/C (median survival) (MM-46 ascites tumor; [5]): 113.3%
- Median Survival Day (MM-46 ascites tumor; [6]): 34.0 days
- Survivors (90 days) (MM-46 ascites tumor; [6]): 0/10
- T/C (median survival) (MM-46 ascites tumor; [6]): 453.3%
- Median Survival Day (MM-46 ascites tumor; [7]): 49.0 days
- Survivors (90 days) (MM-46 ascites tumor; [7]): 1/10
- T/C (median survival) (MM-46 ascites tumor; [7]): 653.3%
- Median Survival Day (MM-46 ascites tumor; [8]): 18.5 days
- Survivors (90 days) (MM-46 ascites tumor; [8]): 0/10
- T/C (median survival) (MM-46 ascites tumor; [8]): 246.7%
- Pulmonary metastasis-inhibition rate (melanoma BL-6; [9]): 50.0%
- The number of pulmonary nodules, median (melanoma BL-6; [9]): 10.5
- The number of pulmonary nodules, range (melanoma BL-6; [9]): 1-20
- Pulmonary metastasis-inhibition rate (melanoma BL-6; [10]): 69.0%
- The number of pulmonary nodules, median (melanoma BL-6; [10]): 6.5
- The number of pulmonary nodules, range (melanoma BL-6; [10]): 1-14
- Median Survival Day (Ehrlich ascites tumor; 15 mg/kg i.p., 1-9 Days): 16.0 days
- No. of 40-day Survivors (Ehrlich ascites tumor; 15 mg/kg i.p., 1-9 Days): 0/8
- T/C (median survival) (Ehrlich ascites tumor; 15 mg/kg i.p., 1-9 Days): 106%
- Median Survival Day (Ehrlich ascites tumor; 30 mg/kg i.p., 1-9 Days): 22.5 days
- No. of 40-day Survivors (Ehrlich ascites tumor; 30 mg/kg i.p., 1-9 Days): 1/8
- T/C (median survival) (Ehrlich ascites tumor; 30 mg/kg i.p., 1-9 Days): 150.0%
- Median Survival Day (Ehrlich ascites tumor; 60 mg/kg i.p., 1-9 Days): 21.5 days
- No. of 40-day Survivors (Ehrlich ascites tumor; 60 mg/kg i.p., 1-9 Days): 2/8
- T/C (median survival) (Ehrlich ascites tumor; 60 mg/kg i.p., 1-9 Days): 143.3%
- Median Survival Day (Ehrlich ascites tumor; [11]): 26.5 days
- No. of 40-day Survivors (Ehrlich ascites tumor; [11]): 2/8
- T/C (median survival) (Ehrlich ascites tumor; [11]): 176.7%
- Growth Inhibition Rate (MM-46 solid tumor; Day 14, 100 mg/kg p.o.): 40.4%
- Size of Tumor (MM-46 solid tumor; Day 14, 100 mg/kg p.o.): 150.1 ± 52.1 mm^2
- Growth Inhibition Rate (MM-46 solid tumor; Day 14, 200 mg/kg p.o.): 41.3%
- Size of Tumor (MM-46 solid tumor; Day 14, 200 mg/kg p.o.): 147.9 ± 56.2 mm^2
- Growth Inhibition Rate (MM-46 solid tumor; Day 14, 400 mg/kg p.o.): 47.8%
- Size of Tumor (MM-46 solid tumor; Day 14, 400 mg/kg p.o.): 131.5 ± 55.2 mm^2
- Growth Inhibition Rate (MM-46 solid tumor; Day 21, 100 mg/kg p.o.): 55.8%
- Size of Tumor (MM-46 solid tumor; Day 21, 100 mg/kg p.o.): 149.4 ± 84.8 mm^2
- Growth Inhibition Rate (MM-46 solid tumor; Day 21, 200 mg/kg p.o.): 53.4%
- Size of Tumor (MM-46 solid tumor; Day 21, 200 mg/kg p.o.): 147.5 ± 65.3 mm^2
- Growth Inhibition Rate (MM-46 solid tumor; Day 21, 400 mg/kg p.o.): 53.4%
- Size of Tumor (MM-46 solid tumor; Day 21, 400 mg/kg p.o.): 157.4 ± 104.0 mm^2
